Data as given in patent publication US10407422B2, “Triazolopyridine inhibitors of myeloperoxidase” (priority 2015, dated 2019).

Columns and labels:
Format in all cases: biochemical
[1] = target: T1, myeloperoxidase (MPO) (Homo sapiens (Human), UniProt P05164); assay: MPO chlorination assay (APF assay); conditions: potency range class
Summary of the method: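 Human MPO (200 pM) preincubated 10 min at room temperature with inhibitor and 120 mM NaCl in 100 mM KPi pH 7.4. Reaction started with APF plus 10 μM H2O2, and hypochlorite-generated fluorescein read kinetically (ex 485/em 535 nm) for 3 min. IC50 from linear-phase slopes fitted to a four-parameter equation.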

[2] = target: T1, myeloperoxidase (MPO); assay: MPO peroxidation assay (Amplex Red assay); conditions: potency range class
Summary of the method: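 Human MPO at 200 pM with 40 nM H2O2 preincubated 10 min at room temperature with inhibitor in 100 mM KPi pH 7.4. Reaction started with Amplex Red mixture (200 μM Amplex Red, 10 mM H2O2); resorufin fluorescence (Ex 535, Em 590 nm) read kinetically for 15 min. IC50 fitted from slopes over 180-540 s.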

[3] = target: eosinophil peroxidase (EPX) (Homo sapiens (Human), UniProt P11678); assay: EPX bromination assay
eosinophil peroxidase (EPX), sequence (P11678 140-715): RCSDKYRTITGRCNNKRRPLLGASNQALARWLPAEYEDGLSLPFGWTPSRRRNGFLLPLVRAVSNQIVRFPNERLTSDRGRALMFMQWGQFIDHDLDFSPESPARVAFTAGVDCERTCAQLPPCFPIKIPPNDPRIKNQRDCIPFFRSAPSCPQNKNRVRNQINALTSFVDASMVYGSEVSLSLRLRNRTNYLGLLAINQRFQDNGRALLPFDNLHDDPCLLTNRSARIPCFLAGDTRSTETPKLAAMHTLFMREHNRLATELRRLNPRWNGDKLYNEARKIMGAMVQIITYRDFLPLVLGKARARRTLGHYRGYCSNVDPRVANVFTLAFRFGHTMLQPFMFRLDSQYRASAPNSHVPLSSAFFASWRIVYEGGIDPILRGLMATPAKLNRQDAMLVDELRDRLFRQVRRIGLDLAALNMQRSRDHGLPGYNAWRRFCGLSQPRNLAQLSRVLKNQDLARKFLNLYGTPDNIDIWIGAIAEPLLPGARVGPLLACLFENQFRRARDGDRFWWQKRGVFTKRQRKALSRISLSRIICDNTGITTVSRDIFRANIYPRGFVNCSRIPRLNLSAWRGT
Method: [formula] where A=minimal Y value (activity level of inhibited sample), B=maximal Y value (activity level of uninhibited sample), C=Log IC50, D=Hill Slope, x=concentration of inhibitor. EPX Bromination Assay
EPX bromination activity was measured in 100 mM KPi (pH 7.4) by monitoring the H2O2 catalyzed formation of 3-bromo tyrosine from tyrosine and potassium bromide. A 50 μl mixture of 0.6 μM EPX (Lee Biosolutions Cat. #342-60) was added to 100 nL inhibitor in 100% DMSO in a 384 well REMP plate. Enzyme and compound were preincubated for ten minutes at room temperature.
After the ten minute preincubation of enzyme and inhibitor, 25 μL of a mixture containing 400 μM tyrosine and 1200 μM potassium bromide was added to the plate containing enzyme and inhibitor, followed by the addition of 25 μl of 20 μM H2O2. The reaction was allowed to proceed for 15 minutes, at which time it was quenched with 10 μL of 20% TCA. The final concentrations of all components were 0.3 μM EPX, 100 μM tyrosine, […], 5 μM H2O2, 0.1% DMSO, 2.0% TCA.
IC50 values were determined by determining the peak areas of 3-bromotyrosine present at the end of the 15 minute reaction and fitting the data to:
[formula] where A=minimal Y value (activity level of inhibited sample), B=maximal Y value (activity level of uninhibited sample), C=Log IC50, D=Hill Slope, x=concentration of inhibitor.
Reversed-phase analysis was performed on a Waters Acquity Ultra Performance LC system using an Acquity UPLC BEH C18 […], 2.1×50 mm analytical column. The column was maintained at 60° C. Samples were eluted using a gradient of 0%-100% B over 2.5 minutes, followed by equilibration with 100% A for 1 minute where A consisted of 0.1% TFA and B consisted of 90% MeOH/0.1% TFA at a flow rate of 0.6 mL/min. The retention time of 3-bromo tyrosine was 1.22 min (Method A).

T1 sequence (P05164 49-745): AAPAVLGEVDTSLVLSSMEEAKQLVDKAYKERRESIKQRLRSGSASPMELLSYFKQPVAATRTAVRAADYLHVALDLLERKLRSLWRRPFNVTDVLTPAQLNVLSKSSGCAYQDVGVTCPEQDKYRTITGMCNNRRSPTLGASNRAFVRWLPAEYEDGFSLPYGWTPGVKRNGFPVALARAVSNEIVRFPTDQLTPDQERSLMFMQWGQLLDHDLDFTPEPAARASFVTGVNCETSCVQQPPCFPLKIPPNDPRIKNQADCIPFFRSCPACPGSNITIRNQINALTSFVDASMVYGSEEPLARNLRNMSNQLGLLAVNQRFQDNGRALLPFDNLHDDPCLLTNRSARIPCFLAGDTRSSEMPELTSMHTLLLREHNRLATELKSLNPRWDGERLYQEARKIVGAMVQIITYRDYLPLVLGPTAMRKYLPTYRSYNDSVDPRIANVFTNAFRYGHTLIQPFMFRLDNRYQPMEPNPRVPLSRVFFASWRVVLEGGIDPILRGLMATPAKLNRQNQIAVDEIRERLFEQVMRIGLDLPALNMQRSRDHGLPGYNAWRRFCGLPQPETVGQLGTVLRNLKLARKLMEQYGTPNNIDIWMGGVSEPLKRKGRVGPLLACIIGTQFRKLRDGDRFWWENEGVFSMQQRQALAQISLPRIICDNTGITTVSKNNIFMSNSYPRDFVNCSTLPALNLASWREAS

| Compound | IC50 [1] [nM] | IC50 [2] [nM] | IC50 [3] [nM] |
| --- | --- | --- | --- |
| Nc1cc(Cc2cnn(-c3ccc(F)cc3)c2)c2nn[nH]c2n1 [Example 1, 7-((1-(4-Fluorophenyl)-1H-pyrazol-4-yl)methyl)-3H-[1,2,3]triazolo[4,5-b]pyridin-5-amine] | 1 to 100 | 1 to 100 | 19 |
| Nc1cc(Cc2cnn(-c3ccccc3)c2)c2nn[nH]c2n1 [Example 5, 7-((1-Phenyl-1H-pyrazol-4-yl)methyl)-3H-[1,2,3]triazolo[4,5-b]pyridin-5-amine] | 1 to 100 | 1 to 100 | 11 |
| Nc1cc(Cc2cnn(Cc3ccccc3)c2)c2nn[nH]c2n1 [Example 34, 7-((1-Benzyl-1H-pyrazol-4-yl)methyl)-3H-[1,2,3]triazolo[4,5-b]pyridin-5-amine] | 101 to 999 | 1 to 100 | 30 |
| Nc1cc(Cc2cn(Cc3ccccc3)nn2)c2nn[nH]c2n1 [Example 52, 7-((1-Benzyl-1H-1,2,3-triazol-4-yl)methyl)-3H-[1,2,3]triazolo[4,5-b]pyridin-5-amine] | 101 to 999 | 1 to 100 | 20 |
| Nc1cc(Cc2cnn(C3CCC3)c2)c2nn[nH]c2n1 [Example 53, 7-((1-Cyclobutyl-1H-pyrazol-4-yl)methyl)-3H-[1,2,3]triazolo[4,5-b]pyridin-5-amine] |  | 1 to 100 | 32 |
| Nc1cc(Cc2cnn(Cc3ccc4c(c3)CCNC4)c2)c2nn[nH]c2n1 [Example 130, 7-((1-((1,2,3,4-Tetrahydroisoquinolin-6-yl)methyl)-1H-pyrazol-4-yl)methyl)-3H-[1,2,3]triazolo[4,5-b]pyridin-5-amine] | 1 to 100 | 1 to 100 | 8 |
| Nc1cc(Cc2cnn(Cc3ccc(CNC4CC4)cc3)c2)c2nn[nH]c2n1 [Example 185, 7-{[1-({4-[(Cyclopropylamino)methyl]phenyl}methyl)-1H-pyrazol-4-yl]methyl}-3H-[1,2,3]triazolo[4,5-b]pyridin-5-amine] | 101 to 999 | 1 to 100 | 45 |
| Nc1cc(Cc2cnn(Cc3cccc(C4CCNC4)c3)c2)c2nn[nH]c2n1 (centres unmarked) [Example 187, 7-[(1-{[3-(Pyrrolidin-3-yl)phenyl]methyl}-1H-pyrazol-4-yl)methyl]-3H-[1,2,3]triazolo[4,5-b]pyridin-5-amine] | 1 to 100 | 1 to 100 | 21 |
| Nc1cc(Cc2cnn(Cc3ccc4c(c3)C(F)(F)CNC4)c2)c2nn[nH]c2n1 [Example 260, 7-({1-[(4,4-Difluoro-1,2,3,4-tetrahydroisoquinolin-6-yl)methyl]-1H-pyrazol-4-yl}methyl)-3H-[1,2,3]triazolo[4,5-b]pyridin-5-amine] | 101 to 999 | 1 to 100 | 114 |
